Article PMC7910904, “Improving the Antioxidant Properties of Calophyllum inophyllum Seed Oil from French Polynesia: Development and Biological Applications of Resinous Ethanol-Soluble Extracts” (Antioxidants, 2021)
≈ marks a conversion by molar mass, not a printed value.

Tests used:
[1] = tested on: Staphylococcus aureus (ATCC 6538); assay: Antimicrobial disk-diffusion agar method; format: cell-based; details: for zone of inhibition at 20 µg/disc: Staphylococcus aureus, ATCC6538, 20 µg/disk, 24 h, read-out: S. aureus Diameter of the zone of inhibition; for Antimicrobial activity against S. aureus, in words: 20 µg per disc
[2] = Total peroxyl radical-trapping potential (TRAP) assay; details: for TRAP TE: metabolites and standards: activity of a 1 µM-solution relative to 1 µM Trolox
Description: The experimental protocol of the TRAP assay was previously reported. Briefly, AAPH (150 mM) was dissolved in 10 mL of Tris HCl buffer solution (100 mM, pH 7.4), and the solution was kept at 37 °C for 30 min to initiate thermal radical formation. A luminol stock solution (1 mM) was prepared in 50 mL Tris HCl buffer and kept in darkness at 4 °C. A 78 µM, working luminol solution was prepared before each assay by dilution in Tris HCl buffer. Samples for assays were prepared as follows: 2 mL of AAPH (final concentration, 100 mM) and 500 μL of luminol solution (final concentration, 13 µM) were introduced in a 3 mL tube; then, 500 μL of pure acetone (blank) or solution of the tested oil or extract in acetone (0.005–0.2 mg/mL) or DMSO (test compounds: 5–300 µM) were added and the mixture vortexed for 5 s before luminescence analysis. A calibration curve was obtained in the same conditions using the antioxidant Trolox (1–40 μM) as a standard.
Quantification of radical scavenging capacity was performed by integrating the area under the curve (AUC) for the sample and blank solutions, and the results are expressed as Trolox Equivalents (TE) using Equation (2):TE = ([Trolox] × ΔAUC Sample)/([Sample] × ΔAUC Trolox)(2) where ΔAUC Sample (Trolox) = AUC Blank − AUC Sample (Trolox).

[3] = DPPH assay; details: for IC50: metabolites and standards, in dichloromethane
Description: Experiments were performed according to previous procedures. Aliquots of dichloromethane solutions of oil or fractions (50–500 mg/mL) or test compounds (final concentration 0.01–2 mM) were added to 200 µL of a freshly prepared DPPH solution (75 mg/L), and the final volume was adjusted to 300 µL with dichloromethane to obtain a final DPPH concentration of 0.13 mM. The absorbance was read at 517 nm on a microplate reader 3 min after sample addition. Experiments were performed in triplicate and averaged. The DPPH inhibition was calculated as follows:Inhibition (%) = [100 × (A0 − A)/A0](1)

[4] = tested on: M. tuberculosis H37 RV; assay: Anti-mycobacterial Microplate-based Alamar Blue assay (MABA); format: cell-based; details: Mycobacterium tuberculosis, H37RV
[5] = tested on: A549 human lung carcinoma cells; assay: MTT cytotoxicity on A549 cells; format: cell-based; details: 50% viability after 48 h
[6] = tested on: 3T3 fibroblasts; assay: MTT cytotoxicity on 3T3 fibroblasts; format: cell-based, murine; details: Mus musculus, Fibroblast, 50% viability after 48 h

Row | SMILES | zone of inhibition at 20 µg/disc [1] [mm] | TRAP TE [2] [TE] | IC50 [3] [µM] | TRAP activity, in words [2] | DPPH scavenging capacity, in words [3] | MIC [4] [µg/mL] | Antimicrobial activity against S. aureus, in words [1] | IC50 [5] [µg/mL] | IC50 [6] [µg/mL] | TRAP efficiency relative to Trolox [2] | DPPH: times more active than inophyllums E and C [3]
1 | Cc1onc(-c2ccccc2)c1C(=O)N[C@@H]1C(=O)N2[C@@H]1SC(C)(C)[C@@H]2C(=O)O [Oxacillin, reference compound] | 30 ± 1 | – | – | – | – | – | – | – | – | – | –
2 | COc1ccc(O)c(C(C)(C)C)c1 [BHA, reference compound] | – | 3.46 ± 0.20 | 94.9 ± 6.1 | – | – | – | – | – | – | – | –
3 | C[C@H]1Oc2c3c(c4c(-c5ccccc5)cc(=O)oc4c2C(=O)[C@@H]1C)OC(C)(C)C=C3 [Inophyllum C] | – | 0.21 ± 0.04 | 701 ± 9 | weakly active | moderately active | – | – | – | – | – | –
4 | C/C=C(\C)C(=O)c1c(OC)c2c(c3c(CCC)cc(=O)oc13)OC(C)(C)C=C2 [Calanolide GUT 70] | – | 0.30 ± 0.03 | ~900 | weakly active | slightly active | – | – | – | – | – | –
5 | CCCc1cc(=O)oc2c3c(c4c(c12)OC(C)(C)C=C4)O[C@H](C)[C@@H](C)C3=O [12-Oxocalanolide A] | 18 ± 2 | – | > 1000 | – | inactive | > 15 | significant activity | 1.9 ± 0.1 (≈ 5.16 µM) | 36 ± 8 (≈ 97.7 µM) | – | –
6 | CCCc1cc(=O)oc2c3c(c4c(c12)OC(C)(C)C=C4)O[C@H](C)[C@@H](C)[C@@H]3O [Calanolide A] | 14 ± 1 | 0.40 ± 0.02 | ~950 | – | slightly active | 4.1 ± 0.3 (≈ 11.1 µM) | – | 8.2 ± 1.7 (≈ 22.1 µM) | 52 ± 8 (≈ 140 µM) | – | –
7 | Oc1ccc2c(c1)OCO2 [Sesamol, reference compound] | – | 1.34 ± 0.09 | 66.9 ± 3.1 | – | – | – | – | – | – | – | –
8 | [H]/N=C(/N)N[C@H]1[C@H](O)[C@@H](O)[C@H](O[C@@H]2O[C@@H](C)[C@](O)(C=O)[C@H]2O[C@@H]2O[C@@H](CO)[C@H](O)[C@@H](O)[C@@H]2NC)[C@@H](N/C(N)=N\[H])[C@@H]1O [Streptomycin, reference compound] | – | – | – | – | – | 0.4 ± 0.1 (≈ 0.688 µM) | – | – | – | – | –
9 | C[C@@H]1[C@@H](C)Oc2c3c(c4c(-c5ccccc5)cc(=O)oc4c2[C@@H]1O)OC(C)(C)C=C3 [Inophyllum P] | 17 ± 1 | 4.11 ± 0.10 | 26.2 ± 3.1 | strong antioxidant activity | strongly active | 5.7 ± 0.3 (≈ 14.1 µM) | significant activity | 11.3 ± 0.6 (≈ 27.9 µM) | 92 ± 4 (≈ 227 µM) | about four times more efficient than Trolox | 20–30 times
10 | C[C@@H]1C(=O)c2c(c3c(c4c(-c5ccccc5)cc(=O)oc24)OC(C)(C)C=C3)O[C@@H]1C [Inophyllum E] | 14 ± 2 | 0.91 ± 0.04 | 481 ± 7 | weakly active | moderately active | > 15 | – | 44.8 ± 2.2 (≈ 111 µM) | 120 ± 9 (≈ 298 µM) | – | –
11 | CCC(C)c1cc(=O)oc2c3c(c4c(c12)OC(C)(C)C=C4)OC(C)C(C)C3O (stereo not shown) [Tamanolide D] | 12 ± 2 | 1.36 ± 0.20 | 779 ± 7 | – | moderately active | 5.1 ± 0.3 (≈ 13.3 µM) | – | 9.3 ± 1.2 (≈ 24.2 µM) | 46 ± 5 (≈ 120 µM) | – | –
12 | Cc1c(C)c2c(c(C)c1O)CCC(C)(C(=O)O)O2 (stereo not shown) [Trolox, 6-hydroxy-2,5,7,8-tetramethylchroman-2-carboxylic acid, reference compound] | – | 1 | 21.2 ± 0.8 | – | – | – | – | – | – | – | –
13 | CCCc1cc(=O)oc2c3c(c4c(c12)OC(C)(C)C=C4)O[C@H](C)[C@H](C)C3=O [Calanolide D] | – | – | > 1000 | – | inactive | – | – | – | – | – | –
